Laboratory results from patent US20020193441A1, “Prostanoid therapies for the treatment of glaucoma” (priority 2001, published 2002).

Experiments:
[1] = test system: patients with open-angle glaucoma or ocular hypertension; assay: Clinical studies of travoprost (six, nine and twelve month studies pooled): IOP in black v. non-black patients; type: in vivo, human; conditions: for Mean IOP (overall) / IOP change from baseline: combined over visit and time of day; for Mean IOP (overall): pooled; for IOP change from baseline: three studies pooled, intent-to-treat
Protocol: The ability of travoprost to lower IOP was evaluated in three separate clinical trials, each involving the evaluation of both a low (0.0015%) and a high (0.004%) concentration composition. The studies differed in length, one lasting six months (hereinafter “six month study”), one lasting nine months (hereinafter “nine month study”) and one lasting twelve months (hereinafter “twelve month study”). The twelve month study was a triple-masked, parallel group, primary therapy study of the safety and efficacy of travoprost 0.0015% and travoprost 0.004% compared to timolol 0.5% and latanoprost 0.005% in patients with open-angle glaucoma or ocular hypertension. The term triple-masked is synonymous with the ICH E3 definition of double-blind. Patients of any race and either sex with open-angle glaucoma (with or without dispersion or pseudoexfoliation component) or ocular hypertension were qualified to participate in the studies. Pursuant to the study protocol, one group received travoprost 0.0015% topical ocular solution and dropped one drop once-daily in each eye at 8:00 p.m. A second group received travoprost 0.004% topical ocular solution and dropped one drop, once-daily in each eye at 8:00 p.m. A third group received vehicle only (placebo) and dropped one drop, once-daily in each eye at 8:00 a.m. A fourth group received timolol 0.5% topical ocular solution and dropped one drop, twice-daily in each eye at 8:00 a.m. and 8:00 p.m. A fifth group received latanoprost 0.005% topical ocular solution and dropped one drop, once-daily in each eye at 8:00 p.m. For evaluation purposes, the primary efficacy variable was mean intraocular pressure (IOP) in patient's worse eye. Safety was based on ocular and systemic parameters including hyperemia, flare, iris color, visual acuity, slit-lamp examinations, endothelial cell density, pachymetry, blood pressure and pulse, laboratory assessments, dilated fundus examinations, automated perimetry and adverse events. Repeated measures analysis of variance was used to test differences among treatment groups and to calculate 95% confidence limits about the differences between groups. The six month study was a triple-masked, parallel group, primary therapy study of the safety and efficacy of travoprost 0.0015% and travoprost 0.004% compared to timolol 0.5% in patients with open-angle glaucoma or ocular hypertension. The term triple-masked is synonymous with the ICH E3 definition of double-blind. Patients of any race and either sex with open-angle glaucoma (with or without dispersion or pseudoexfoliation component) or ocular hypertension were qualified to participate in the studies. Pursuant to the study protocol, one group received travoprost 0.0015% topical ocular solution and dropped one drop once-daily in each eye at 8:00 p.m. A second group received travoprost 0.004% topical ocular solution and dropped one drop, once-daily in each eye at 8:00 p.m. A third group received vehicle only (placebo) and dropped one drop, once-daily in each eye at 8:00 a.m. A fourth group received timolol 0.5% topical ocular solution and dropped one drop, twice-daily in each eye at 8:00 a.m. and 8:00 p.m. For evaluation purposes, the primary efficacy variable was mean intraocular pressure (IOP) in patient's worse eye. Safety was based on ocular and systemic parameters including hyperemia, aqueous cells and flare, iris pigmentation, visual acuity, slit-lamp biomicroscopy, blood pressure and pulse, laboratory assessments, dilated fundus examinations, automated perimetry and adverse events. Repeated measures analysis of variance was used to test differences among treatment groups and to calculate 95% confidence limits about the differences between groups. The nine month study was a triple-masked, parallel group, primary therapy study of the safety and efficacy of travoprost 0.0015% and travoprost 0.004% compared to timolol 0.5% and latanoprost 0.005% in patients with open-angle glaucoma or ocular hypertension. […]

[2] = test system: black and non-black patients; assay: Dose-response evaluations: travoprost concentration and IOP response in black and non-black patients; type: in vivo, human
Source text: Dose-response studies were undertaken to evaluate the relationship between travoprost and IOP response in black and non-black patients. […] FIG. 1 depicts the relationship between log concentration and IOP for black patients versus non-black patients. For black patients, IOP went from approximately 28 mmHg at a concentration of 0.00009% travoprost to approximately 18.5 mmHg at 0.004% travoprost. For non-black patients, IOP went from approximately 23 mmHg at 0.00009% travoprost to approximately 18 mmHg at 0.004% travoprost. FIG. 2 depicts the relationship between log concentration and IOP change. IOP change went from approximately −1 mmHg to approximately −7.75 mmHg for black patients and from approximately −3.25 mmHg to approximately −7.25 mmHg for non-black patients. FIGS. 1 and 2 depict a comparison of IOP or IOP change to log concentration to illustrate the significance of the dose-response difference between the two groups. FIGS. 3 and 4 depict the same relationships using actual concentrations.

[3] = travoprost 0.0015%, black patients
[4] = travoprost 0.0015%, non-black patients
[5] = travoprost 0.004%, black patients
[6] = travoprost 0.004%, non-black patients

SMILES: CC(C)OC(=O)CCC/C=C\C[C@@H]1[C@@H](/C=C/[C@@H](O)COc2cccc(C(F)(F)F)c2)[C@H](O)C[C@@H]1O [Travoprost, travoprost]
- Further IOP reduction when dose increased from 0.0015% to 0.004% ([1]; blacks): statistically significant further reduction
- Further IOP reduction when dose increased from 0.0015% to 0.004% ([1]; caucasians (non-blacks)): no further reduction
- Subgroup difference in mean IOP between black and non-black patients (analysis of variance) ([1]; travoprost 0.0015% analysis): No statistically significant subgroup differences
- Difference in IOP change from baseline between blacks and non-blacks ([1]; travoprost 0.0015% dose): no significant difference
- Mean IOP (combined over visit) ([1]; travoprost 0.0015%, black patients, 4 p.m.): 17.8 mmHg
- Mean IOP (combined over visit) ([1]; travoprost 0.0015%, black patients, 8 a.m.): 19.6 mmHg
- Mean IOP (combined over visit) ([1]; travoprost 0.0015%, black patients, 10 a.m.): 18.4 mmHg
- Mean IOP (overall) [1, 3]: 18.6 mmHg
- IOP change from baseline [1, 3]: −7.1 mmHg
- Mean IOP (combined over visit) ([1]; travoprost 0.0015%, non-black patients, 4 p.m.): 18.2 mmHg
- Mean IOP (combined over visit) ([1]; travoprost 0.0015%, non-black patients, 8 a.m.): 19.4 mmHg
- Mean IOP (combined over visit) ([1]; travoprost 0.0015%, non-black patients, 10 a.m.): 18.5 mmHg
- Mean IOP (overall) [1, 4]: 18.7 mmHg
- IOP change from baseline [1, 4]: −7.1 mmHg
- Subgroup difference in mean IOP between black and non-black patients (analysis of variance) ([1]; travoprost 0.004% analysis): significant subgroup difference
- Subgroup difference in mean IOP, black lower than non-black ([1]; travoprost 0.004%, 4 PM): 1.1 mmHg
- Subgroup difference in mean IOP, black lower than non-black ([1]; travoprost 0.004%, 8 AM): 0.8 mmHg
- Subgroup difference in mean IOP, black lower than non-black ([1]; travoprost 0.004%, 10 AM): 1.5 mmHg
- Mean IOP (combined over visit) ([1]; travoprost 0.004%, black patients, 4 p.m.): 16.8 mmHg
- Mean IOP (combined over visit) ([1]; travoprost 0.004%, black patients, 8 a.m.): 18.6 mmHg
- Mean IOP (combined over visit) ([1]; travoprost 0.004%, black patients, 10 a.m.): 16.8 mmHg
- Mean IOP (overall) [1, 5]: 17.4 mmHg
- IOP change from baseline [1, 5]: −8.1 mmHg
- Difference in mean IOP, black lower than non-black ([1]; travoprost 0.004%, combined (8 a.m., 10 a.m., and 4 p.m.) results): up to 1.5 mmHg
- Mean IOP (combined over visit) ([1]; travoprost 0.004%, non-black patients, 4 p.m.): 18.0 mmHg
- Mean IOP (combined over visit) ([1]; travoprost 0.004%, non-black patients, 8 a.m.): 19.3 mmHg
- Mean IOP (combined over visit) ([1]; travoprost 0.004%, non-black patients, 10 a.m.): 18.3 mmHg
- Mean IOP (overall) [1, 6]: 18.5 mmHg
- IOP change from baseline [1, 6]: −7.5 mmHg
- Difference in mean IOP, black lower than non-black ([1]; travoprost 0.004%, overall result): 1.1 mmHg
- IOP (FIG. 1) ([2]; 0.00009% travoprost, black patients): approximately 28 mmHg
- IOP (FIG. 1) ([2]; 0.00009% travoprost, non-black patients): approximately 23 mmHg
- IOP (FIG. 1) ([2]; 0.004% travoprost, black patients): approximately 18.5 mmHg
- IOP (FIG. 1) ([2]; 0.004% travoprost, non-black patients): approximately 18 mmHg
- Dose-response based on comparison slopes ([2]; black patients compared with non-black patients): much more pronounced dose-response
- IOP change (FIG. 2) ([2]; black patients, high end of concentration range ('to')): approximately −7.75 mmHg
- IOP change (FIG. 2) ([2]; black patients, low end of concentration range ('from')): approximately −1 mmHg
- Mean IOP versus dose ([2]; both race subgroups): reduced significantly with increasing dose
- IOP change (FIG. 2) ([2]; non-black patients, high end of concentration range ('to')): approximately −7.25 mmHg
- IOP change (FIG. 2) ([2]; non-black patients, low end of concentration range ('from')): approximately −3.25 mmHg
